Test results reported in article PMC11945486, “TAS1R2/TAS1R3 Single-Nucleotide Polymorphisms Affect Sweet Taste Receptor Activation by Sweeteners: The SWEET Project” (Nutrients, 2025).

Biological target: T1, human TAS1R2-P21L (subunit alone) (Homo sapiens, UniProt Q8TE23, P21L)
T1 construct: expressed in transfected cells; host or cells: HEK293T-Gα16gust44
T1 sequence (Q8TE23 20-839 P21L): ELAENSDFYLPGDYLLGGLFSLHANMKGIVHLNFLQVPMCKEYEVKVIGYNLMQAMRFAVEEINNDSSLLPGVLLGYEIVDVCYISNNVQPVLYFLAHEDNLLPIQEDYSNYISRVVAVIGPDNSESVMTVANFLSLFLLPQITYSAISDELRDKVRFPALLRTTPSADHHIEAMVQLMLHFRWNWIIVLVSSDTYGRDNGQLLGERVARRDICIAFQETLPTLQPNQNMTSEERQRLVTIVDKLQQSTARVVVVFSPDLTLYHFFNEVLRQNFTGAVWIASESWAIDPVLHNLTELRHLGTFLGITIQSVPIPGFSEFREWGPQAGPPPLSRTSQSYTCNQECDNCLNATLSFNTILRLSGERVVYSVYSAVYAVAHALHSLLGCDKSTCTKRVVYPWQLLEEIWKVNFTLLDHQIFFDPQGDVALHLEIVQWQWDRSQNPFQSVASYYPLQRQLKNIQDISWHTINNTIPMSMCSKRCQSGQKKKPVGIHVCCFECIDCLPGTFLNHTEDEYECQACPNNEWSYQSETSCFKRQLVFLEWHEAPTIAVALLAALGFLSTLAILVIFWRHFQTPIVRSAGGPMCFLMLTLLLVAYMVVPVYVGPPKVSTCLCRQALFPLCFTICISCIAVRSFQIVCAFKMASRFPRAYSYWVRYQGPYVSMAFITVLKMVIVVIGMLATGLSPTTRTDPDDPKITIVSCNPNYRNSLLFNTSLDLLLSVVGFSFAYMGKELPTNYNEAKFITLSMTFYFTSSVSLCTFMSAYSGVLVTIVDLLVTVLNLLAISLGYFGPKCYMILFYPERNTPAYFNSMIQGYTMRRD
Experiment: Calcium mobilisation assay, TAS1R2-P21L subunit alone
Assay type: cell-based
Text: The coding sequences for TAS1R2 and TAS1R3 were commercially synthesised, and the human codon was optimised for expression in human cells. The coding sequences of human TAS1R2 and TAS1R3 were subcloned and inserted into the mammalian expression vectors pcDNA6/myc-HisA and pcDNA4/myc-HisA (Invitrogen; Thermo Fisher Scientific; Illkirch, France) between the EcoRI and NotI restriction sites, generating the plasmids pcDNA6-TAS1R2 and pcDNA4-TAS1R3, respectively. To increase protein expression in mammalian cells, an upstream start codon was used, which was a sequence called MAX, corresponding to the QBI SP163 element also described in pcDNA4-HisMax (Invitrogen; Thermo Fisher Scientific; Illkirch, France). To measure the expression level of the receptor by immunohistochemistry, we used the FLAG sequence ([…]) in the C-terminal position, which encodes the FLAG tag epitope. […]
The HEK293T cells were kindly provided by Jay P. Slack (Givaudan Flavors Corporation; Cincinnati, OH, USA). […] The fluorescence intensity was measured for 90 s (excitation 488 nm, emission 510 nm) in an automated fluorometric FlexStation®3 Multi-Mode microplate reader (Molecular Devices; San Jose, CA, USA). […] The Ca^2+ changes were expressed as fractional changes in fluorescent light intensity: ΔF/F = (F − F0)/F0, where F was the fluorescent light intensity at each point, and F0 was the value of emitted fluorescent light prior to stimulus application. To calculate dose–response relationships, the changes in fluorescence upon stimulus application were averaged, mock-subtracted and baseline-corrected. […] The half-maximal effective concentrations (EC50 values) and maximal signal amplitudes were calculated using SigmaPlot software (version 15.0) (Systat Software; San Jose, CA, USA).
For in vitro calcium mobilisation assay performed on hTAS1R2-SNPs, hTAS1R3-SNPs and mTAS1R3-I60T, 6 to 7 concentrations were tested for each sweet compound, plus buffer alone. All concentration–receptor combinations were measured in duplicate, and each experiment was repeated at least 4 times (8 wells/concentration). […]

- EC50: 149 ± 22.7 µM
- R1 = Variant EC50/WT EC50: 1.7
- Max ΔF/F0 (maximal signal amplitude): 0.33 ± 0.02
Structure (SMILES): C=C(C)[C@@H]1CC=C(/C=N/O)CC1 [Perillartine, perillartine]
